Patent US20080176882A1, “SALTS OF 3-(3-AMINO-2-(R)-HYDROXY-PROPYL)-1-(4-FLUORO-PHENYL)-8-(8-METHYL-NAPHTHALEN-1-YLMETHYL)-1,3,8-TRIAZA-SPIRO[4.5]DECAN-4-ONE” (priority 2006, published 2008)
Where a name gives a salt, the structure may show the parent alone.

Assay: DVS (Differential Vapor Sorption) measurements of hygroscopicity
Assay type: physicochemical
Settings: salt forms of the compound of formula (Is)
Source text: In an embodiment, the present invention is directed to a hydrochloride salt of the compound of formula (Is). In another embodiment of the present invention, the hydrochloride salt of the compound of formula (Is) is mono-hydrochloride or di-hydrochloride salt of the compound of formula (Is). In another embodiment of the present invention, the mono-hydrochloride and di-hydrochloride salts of the compound of formula (Is) are crystalline. DVS measurements completed on the mono-hydrochloride and di-hydrochloride salts of the compound of formula (Is) indicate that both of these salt forms are hygroscopic.

For Cc1cccc2cccc(CN3CCC4(CC3)C(=O)N(C[C@H](O)CN)CN4c3ccc(F)cc3)c12 [mono-hydrochloride, 3-(3-amino-2-(R)-hydroxy-propyl)-1-(4-fluoro-phenyl)-8-(8-methyl-naphthalen-1-ylmethyl)-1,3,8-triaza-spiro[4.5]decan-4-one], which “hygroscopicity by DVS measurements” value is on record?
Its value is “hygroscopic”.
